Reference: PubChem BioAssay (NCI)
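Protocol summary: plate cells (96-well), add compound at 5 concentrations, incubate 48 h, interpolate endpoints linearly. Definition used: TGI = concentration required for complete inhibition of growth.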

Columns and labels:
Assay in all cases: NCI-60 cell line screen, 48 h
[1] = tested on: SNB-19 CNS
[2] = tested on: K-562 leukemia
[3] = tested on: U251 CNS
[4] = tested on: HCT-116 colon
[5] = tested on: SNB-75 CNS
[6] = tested on: HL-60(TB) leukemia
[7] = tested on: UO-31 renal
[8] = tested on: MALME-3M melanoma
[9] = tested on: SW-620 colon
[10] = tested on: ACHN renal
[11] = tested on: SK-OV-3 ovarian
[12] = tested on: CAKI-1 renal
[13] = tested on: MOLT-4 leukemia
[14] = tested on: OVCAR-3 ovarian

Compound	TGI [1] [µM]	TGI [2] [µM]	TGI [3] [µM]	TGI [4] [µM]	TGI [5] [µM]	TGI [6] [µM]	TGI [7] [µM]	TGI [8] [µM]	TGI [9] [µM]	TGI [10] [µM]	TGI [11] [µM]	TGI [12] [µM]	TGI [13] [µM]	TGI [14] [µM]
COc1ccccc1NC1Oc2cc3c(cc2C(c2cc(OC)c(OC)c(OC)c2)C1C)OCO3 (stereo unspecified)	> 100	12.5	51.2	> 33.1	16.7	3.36	43.8	9.43	> 100	> 100	> 31.1	17.1	33	
O=C(O)CCC(NC(=O)c1ccc(Oc2nc3ccccc3nc2C(=O)O)cc1)C(=O)O (stereo unspecified)	> 100	> 100	> 100	> 100	> 100	> 100	> 100	> 100	> 100	> 100	> 100	> 100	> 100	> 100
O=C(C[C@@H]1CCCN2CCCC[C@H]12)N1c2ccccc2Sc2ccc(Cl)cc21	31.1	35.2	24.4	29.5	33.4	36.8	25.9	31.2	26.8	27.2		27.6	30	31.9
Cn1cc(NC(=O)Nc2cc(C(=O)Nc3cc(C(=O)Nc4ccc5cc(S(=O)(=O)O)cc(S(=O)(=O)O)c5c4)n(C)c3)n(C)c2)cc1C(=O)Nc1cc(C(=O)Nc2ccc3cc(S(=O)(=O)O)cc(S(=O)(=O)O)c3c2)n(C)c1	> 100	> 100	> 100	> 100	> 100	> 100	> 100	> 100	> 100	> 100	> 100		> 100	> 100
O=S(=O)(CC(Cl)c1ccccc1)c1nc2ccccc2s1 (stereo unspecified)	32.3	7.43	25.9	23.6	27.8	4.43	29.4	23.6	20.7	29.1	32.9	4.4	7.64	23.2
CC(C)C1=Cc2ccc3c(c2C(=O)C1=O)CCCC3	37.5	14.1	42.4	5.39	4.76	1.95	6.74	5.78	14	7.13	30.5	2.15		5.33
COCN1C(=O)[C@@H]2C[C@@H](O)CN2C(=O)c2ccccc21	> 100	> 100	> 100	> 100	> 100	> 100	> 100	> 100	> 100	> 100	> 100	> 100	> 100	
COC(=O)C1(Cc2ccccc2)Cc2ccccc2C1O (stereo unspecified)		> 100	> 100	> 100	> 100	> 100	> 100	> 100	> 100	> 100	> 100	> 100	> 100	> 100
